According to patent US9890153B2, “Substituted 1H-pyrrolo [2, 3-b] pyridine and 1H-pyrazolo [3, 4-b] pyridine derivatives as salt inducible kinase 2 (SIK2) inhibitors” (Arrien Pharmaceuticals LLC, priority 2012, dated 2018):

What was measured:
Assay type in all cases: biochemical
SIK1 (SEQ ID NO: 10) = molecular target: T1, SIK1 (SEQ ID NO: 10) (Homo sapiens, UniProt P57059); assay: Protein kinase assay, SIK1; details: read-out: SIK1 (SEQ ID NO: 10) kinase inhibition result
T1 construct: Reaction Biology Corporation (assay service, HotSpot panel)
T1 sequence (P57059 whole entry): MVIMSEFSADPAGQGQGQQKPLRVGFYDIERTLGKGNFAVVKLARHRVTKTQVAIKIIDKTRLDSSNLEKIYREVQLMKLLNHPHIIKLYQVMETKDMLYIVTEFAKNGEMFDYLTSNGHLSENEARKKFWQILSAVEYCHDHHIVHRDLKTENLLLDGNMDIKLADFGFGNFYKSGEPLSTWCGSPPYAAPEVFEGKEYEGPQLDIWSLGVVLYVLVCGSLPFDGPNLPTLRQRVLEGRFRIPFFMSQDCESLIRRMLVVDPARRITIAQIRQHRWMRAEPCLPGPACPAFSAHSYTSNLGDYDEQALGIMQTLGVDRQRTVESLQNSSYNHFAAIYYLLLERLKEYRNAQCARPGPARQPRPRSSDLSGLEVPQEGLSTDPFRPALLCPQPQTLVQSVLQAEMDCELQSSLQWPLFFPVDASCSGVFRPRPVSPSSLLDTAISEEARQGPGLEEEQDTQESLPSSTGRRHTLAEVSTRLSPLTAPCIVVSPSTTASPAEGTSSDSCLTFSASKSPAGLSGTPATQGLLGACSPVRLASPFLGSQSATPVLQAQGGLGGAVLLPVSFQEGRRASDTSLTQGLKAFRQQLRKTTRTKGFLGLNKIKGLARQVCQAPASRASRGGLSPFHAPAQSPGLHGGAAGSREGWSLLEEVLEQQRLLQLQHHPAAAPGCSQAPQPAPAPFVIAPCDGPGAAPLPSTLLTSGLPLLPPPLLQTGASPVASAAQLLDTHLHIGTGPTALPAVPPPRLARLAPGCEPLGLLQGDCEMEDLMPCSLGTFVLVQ
Description: (§1) Briefly, specific kinase/substrate pairs along with required cofactors were prepared in reaction buffer; 20 mM Hepes (pH 7.5), 10 mMmgCl2, 1 mM EGTA, 0.02% Brij35, 0.02 mg/ml BSA, 0.1 mM Na3VO4, 2 mM DTT, 1% DMSO. Compounds were delivered into the reaction, followed ˜20 min later by addition of a mixture of ATP (Sigma) and 33P ATP (PerkinElmer) to a final concentration of 10 μM. […] IC50 values and curve fits were obtained using Prism (GraphPad Software). Kinome tree representations were prepared using Kinome Mapper (http://www.reactionbiology.com/apps/kinome/mapper/LaunchKinome.htm).

[1] = molecular target: SIK2 (QIK) (SEQ ID NO: 11) (Homo sapiens, UniProt Q9H0K1); assay: SIK2 kinase assay (radiometric, 10 μM ATP); details: read-out: SIK2 (QIK) (SEQ ID NO: 11) kinase inhibition result
SIK2 (QIK) (SEQ ID NO: 11), sequence (Q9H0K1 whole entry): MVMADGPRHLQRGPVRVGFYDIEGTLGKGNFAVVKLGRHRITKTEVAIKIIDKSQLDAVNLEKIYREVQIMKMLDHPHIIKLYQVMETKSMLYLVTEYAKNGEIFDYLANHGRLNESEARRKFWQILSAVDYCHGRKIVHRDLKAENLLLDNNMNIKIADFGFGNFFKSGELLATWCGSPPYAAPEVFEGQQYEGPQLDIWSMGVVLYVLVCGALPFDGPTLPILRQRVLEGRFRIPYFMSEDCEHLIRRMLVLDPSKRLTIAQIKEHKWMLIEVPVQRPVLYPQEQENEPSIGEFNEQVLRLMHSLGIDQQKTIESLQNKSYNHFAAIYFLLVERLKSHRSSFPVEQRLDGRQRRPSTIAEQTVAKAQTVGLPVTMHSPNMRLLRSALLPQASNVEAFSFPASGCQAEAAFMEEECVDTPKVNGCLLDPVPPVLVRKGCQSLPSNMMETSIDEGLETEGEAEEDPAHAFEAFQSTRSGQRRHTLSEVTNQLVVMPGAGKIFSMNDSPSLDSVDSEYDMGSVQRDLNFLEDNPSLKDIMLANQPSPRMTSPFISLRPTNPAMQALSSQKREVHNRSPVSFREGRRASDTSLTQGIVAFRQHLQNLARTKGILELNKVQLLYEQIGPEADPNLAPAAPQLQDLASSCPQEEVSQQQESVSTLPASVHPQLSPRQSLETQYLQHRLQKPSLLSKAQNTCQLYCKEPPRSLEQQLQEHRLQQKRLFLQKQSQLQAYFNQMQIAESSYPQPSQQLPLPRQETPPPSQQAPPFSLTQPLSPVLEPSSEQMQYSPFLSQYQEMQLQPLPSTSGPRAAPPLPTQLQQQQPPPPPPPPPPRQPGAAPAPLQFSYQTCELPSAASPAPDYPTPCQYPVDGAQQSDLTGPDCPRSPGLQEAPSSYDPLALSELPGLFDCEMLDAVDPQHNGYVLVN
Description: Procedure: Enzyme was incubated with substrate peptide in reaction buffer in the presence and absence of test compounds or Staurosporine. All additions were done on ice, followed by the addition of ATP mix. Wells were uniformly mixed using an Eppendorff plate shaker and incubated at 30° C. for 20 min, and stopped by the addition of 5 μL of 3% phosphoric acid. Volume was increased to 100 μL by adding 0.8% phosphoric acid which was then transferred to PC filter mats (Millipore), pre-equilibrated with 70% ethanol and water. Plates were washed thrice with 100 μL 0.8% phosphoric acid and dried for an hour at 60° C.

[2] = molecular target: T2, SIK3 (QSK) (SEQ ID NO: 24) (Homo sapiens, UniProt Q9Y2K2); assay: Protein kinase assay, SIK3; details: read-out: SIK3 (QSK) (SEQ ID NO: 24) kinase inhibition result
T2 construct: Reaction Biology Corporation (assay service, HotSpot panel)
T2 sequence (Q9Y2K2 whole entry): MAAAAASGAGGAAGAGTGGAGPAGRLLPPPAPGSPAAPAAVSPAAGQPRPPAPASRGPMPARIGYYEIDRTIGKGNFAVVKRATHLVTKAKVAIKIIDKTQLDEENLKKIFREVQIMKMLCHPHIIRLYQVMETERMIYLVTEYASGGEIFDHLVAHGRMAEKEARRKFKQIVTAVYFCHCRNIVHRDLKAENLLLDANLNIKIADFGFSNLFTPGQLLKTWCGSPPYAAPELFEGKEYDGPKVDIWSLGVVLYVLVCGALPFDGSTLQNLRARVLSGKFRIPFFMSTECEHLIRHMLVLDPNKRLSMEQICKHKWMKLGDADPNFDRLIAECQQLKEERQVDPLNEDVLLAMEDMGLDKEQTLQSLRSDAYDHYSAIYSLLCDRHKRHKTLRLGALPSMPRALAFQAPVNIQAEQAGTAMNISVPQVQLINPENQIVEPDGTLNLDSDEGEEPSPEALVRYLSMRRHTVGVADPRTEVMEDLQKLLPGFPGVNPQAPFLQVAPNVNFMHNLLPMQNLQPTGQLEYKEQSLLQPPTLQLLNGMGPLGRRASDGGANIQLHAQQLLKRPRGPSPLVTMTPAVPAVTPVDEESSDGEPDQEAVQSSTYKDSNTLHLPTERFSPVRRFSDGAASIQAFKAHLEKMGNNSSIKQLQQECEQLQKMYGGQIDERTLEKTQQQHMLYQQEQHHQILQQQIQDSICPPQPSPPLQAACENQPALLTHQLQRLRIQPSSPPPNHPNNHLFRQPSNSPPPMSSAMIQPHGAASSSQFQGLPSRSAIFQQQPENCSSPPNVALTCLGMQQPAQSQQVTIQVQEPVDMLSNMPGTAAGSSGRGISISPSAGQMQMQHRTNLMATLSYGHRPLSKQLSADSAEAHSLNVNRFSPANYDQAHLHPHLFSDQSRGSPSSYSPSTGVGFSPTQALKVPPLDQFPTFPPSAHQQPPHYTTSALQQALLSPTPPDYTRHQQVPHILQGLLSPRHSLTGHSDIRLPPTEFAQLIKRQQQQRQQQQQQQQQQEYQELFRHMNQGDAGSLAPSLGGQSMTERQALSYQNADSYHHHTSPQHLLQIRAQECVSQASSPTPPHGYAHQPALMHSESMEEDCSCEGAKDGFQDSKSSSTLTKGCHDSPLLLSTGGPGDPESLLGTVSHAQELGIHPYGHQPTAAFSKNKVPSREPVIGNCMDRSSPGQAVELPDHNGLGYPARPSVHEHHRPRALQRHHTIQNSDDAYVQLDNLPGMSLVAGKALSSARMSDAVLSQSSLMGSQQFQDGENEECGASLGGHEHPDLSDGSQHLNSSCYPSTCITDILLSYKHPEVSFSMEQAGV
Description: as §1

| Structure (SMILES) | IC50 (SIK1 (SEQ ID NO: 10)) [nM] | IC50 [1] [nM] | IC50 [2] [nM] |
| --- | --- | --- | --- |
| Fc1cccc(-c2c[nH]c3ncc(-c4ccc(CN5CCOCC5)s4)cc23)c1Cl [Example 133] | > 1000 | < 100 | > 100 |
| Cc1nc(Nc2cnc3[nH]cc(-c4cccc(F)c4Cl)c3c2)sc1Cl [Example 134, 5-chloro-N-(3-(2-chloro-3-fluorophenyl)-1H-pyrrolo[2,3-b]pyridin-5-yl)-4-methylthiazol-2-amine] | > 100 | > 100 | > 1000 |
| CN(C)S(=O)(=O)c1cccc(-c2cnc3[nH]cc(-c4cccc(F)c4Cl)c3c2)c1 [Example 135, 3-(3-(2-chloro-3-fluorophenyl)-1H-pyrrolo[2,3-b]pyridin-5-yl)-N,N-dimethylbenzenesulfonamide] | > 100 | < 100 | > 100 |
| COc1c(F)cccc1-c1c[nH]c2ncc(-c3ccc(CN4CCOCC4)s3)cc12 [Example 142, 4-((5-(3-(3-fluoro-2-methoxyphenyl)-1H-pyrrolo[2,3-b]pyridin-5-yl)thiophen-2-yl)methyl)morpholine] | > 1000 | < 100 | < 100 |
| COc1c(F)cc(F)cc1-c1c[nH]c2ncc(-c3ccc(CN4CCCCC4)s3)cc12 [Example 178, 3-(3,5-difluoro-2-methoxyphenyl)-5-(5-(piperidin-1-ylmethyl)thiophen-2-yl)-1H-pyrrolo[2,3-b]pyridine] | > 1000 | < 100 | > 100 |
| COc1c(F)cccc1-c1c[nH]c2ncc(-c3cccc(S(=O)(=O)N(C)C(C)(C)C)c3)cc12 [Example 180] | > 1000 | < 100 | > 100 |
| COc1c(F)cc(F)cc1-c1c[nH]c2ncc(-c3cccc(S(=O)(=O)N(C)C(C)(C)C)c3)cc12 [Example 181, N-(tert-butyl)-3-(3-(3,5-difluoro-2-methoxyphenyl)-1H-pyrrolo[2,3-b]pyridin-5-yl)-N-methylbenzenesulfonamide] | > 1000 | < 100 | > 100 |
| COc1c(F)cc(F)cc1-c1c[nH]c2ncc(-c3cccc(S(=O)(=O)N4CCCC4)c3)cc12 [Example 183, 3-(3,5-difluoro-2-methoxyphenyl)-5-(3-(pyrrolidin-1-ylsulfonyl)phenyl)-1H-pyrrolo[2,3-b]pyridine] | > 1000 | < 100 | > 100 |
| COc1c(F)cccc1-c1c[nH]c2ncc(-c3cccc(S(=O)(=O)N(C)C)c3)cc12 [Example 184, 3-(3-(3-fluoro-2-methoxyphenyl)-1H-pyrrolo[2,3-b]pyridin-5-yl)-N,N-dimethylbenzenesulfonamide] | > 1000 | < 100 | > 100 |
| COc1c(F)cc(F)cc1-c1c[nH]c2ncc(-c3cccc(S(=O)(=O)N(C)C)c3)cc12 [Example 185, 3-(3-(3,5-difluoro-2-methoxyphenyl)-1H-pyrrolo[2,3-b]pyridin-5-yl)-N,N-dimethylbenzenesulfonamide] | > 1000 | < 100 | > 100 |
| Oc1ccccc1-c1c[nH]c2ncc(-c3ccc(CN4CCOCC4)s3)cc12 [Example 192, 2-(5-(5-(morpholinomethyl)thiophen-2-yl)-1H-pyrrolo[2,3-b]pyridin-3-yl)phenol] | > 100 | < 100 | > 100 |
| Oc1c(F)cccc1-c1c[nH]c2ncc(-c3ccc(CN4CCOCC4)s3)cc12 [Example 193, 2-fluoro-6-(5-(5-(morpholinomethyl)thiophen-2-yl)-1H-pyrrolo[2,3-b]pyridin-3-yl)phenol] | > 100 | < 100 | > 100 |

Continued, values first:

| IC50 (SIK1 (SEQ ID NO: 10)) [nM] | IC50 [1] [nM] | IC50 [2] [nM] | Structure (SMILES) |
| --- | --- | --- | --- |
| > 100 | < 100 | > 100 | COc1c(F)cccc1-c1c[nH]c2nccc(-c3ccsc3)c12 [Example 120, 3-(3-fluoro-2-methoxyphenyl)-4-(thiophen-3-yl)-1H-pyrrolo[2,3-b]pyridine] |
| > 100 | > 100 | > 100 | Oc1ccccc1-c1c[nH]c2ncc(-c3ccsc3)cc12 [Example 123, 2-(5-(thiophen-3-yl)-1H-pyrrolo[2,3-b]pyridin-3-yl)phenol] |
| > 100 | > 100 | > 100 | Oc1c(F)cc(F)cc1-c1c[nH]c2ncc(-c3ccsc3)cc12 [Example 124, 2,4-difluoro-6-(5-(thiophen-3-yl)-1H-pyrrolo[2,3-b]pyridin-3-yl)phenol] |
| > 100 | < 100 | > 100 | Cc1ccc(-c2cnc3[nH]cc(-c4cccc(F)c4O)c3c2)o1 [Example 128, 2-fluoro-6-(5-(5-methylfuran-2-yl)-1H-pyrrolo[2,3-b]pyridin-3-yl)phenol] |
| > 100 | < 100 | > 100 | FC1(F)CN(c2c[nH]c3ncc(-c4ccsc4)cc23)C1 [Example 136, 3-(3,3-difluoroazetidin-1-yl)-5-(thiophen-3-yl)-1H-pyrrolo[2,3-b]pyridine] |
| > 1000 | < 100 | > 100 | Fc1c(-c2c[nH]c3ncc(-c4ccsc4)cc23)ccnc1Cl [Example 141, 3-(2-chloro-3-fluoropyridin-4-yl)-5-(thiophen-3-yl)-1H-pyrrolo[2,3-b]pyridine] |
| > 1000 | < 100 | > 1000 | COc1c(F)cccc1-c1c[nH]c2ncc(-c3ccc(C)o3)cc12 [Example 168, 3-(3-fluoro-2-methoxyphenyl)-5-(5-methylfuran-2-yl)-1H-pyrrolo[2,3-b]pyridine] |
| > 1000 | < 100 | > 100 | COc1c(F)cccc1-c1c[nH]c2ncc(-c3ccc(CN4CCCC4)s3)cc12 [Example 174, 3-(3-fluoro-2-methoxyphenyl)-5-(5-(pyrrolidin-1-ylmethyl)thiophen-2-yl)-1H-pyrrolo[2,3-b]pyridine] |
| > 1000 | < 100 | > 100 | COc1c(F)cccc1-c1c[nH]c2ncc(-c3ccc(CN4CCCCC4)s3)cc12 [Example 175, 3-(3-fluoro-2-methoxyphenyl)-5-(5-(piperidin-1-ylmethyl)thiophen-2-yl)-1H-pyrrolo[2,3-b]pyridine] |
| > 1000 | < 100 | > 100 | COc1c(F)cccc1-c1c[nH]c2ncc(-c3cnc(N4CCOCC4)s3)cc12 [Example 176, 4-(5-(3-(3-fluoro-2-methoxyphenyl)-1H-pyrrolo[2,3-b]pyridin-5-yl)thiazol-2-yl)morpholine] |
| > 1000 | < 100 | > 100 | COc1c(F)cc(F)cc1-c1c[nH]c2ncc(-c3ccc(CN4CCCC4)s3)cc12 [Example 177, 3-(3,5-difluoro-2-methoxyphenyl)-5-(5-(pyrrolidin-1-ylmethyl)thiophen-2-yl)-1H-pyrrolo[2,3-b]pyridine] |
| > 1000 | < 100 | > 100 | COc1c(F)cc(F)cc1-c1c[nH]c2ncc(-c3cnc(N4CCOCC4)s3)cc12 [Example 179, 4-(5-(3-(3,5-difluoro-2-methoxyphenyl)-1H-pyrrolo[2,3-b]pyridin-5-yl)thiazol-2-yl)morpholine] |
| > 1000 | < 100 | > 100 | COc1c(F)cccc1-c1c[nH]c2ncc(-c3cccc(S(=O)(=O)N4CCCC4)c3)cc12 [Example 182, 3-(3-fluoro-2-methoxyphenyl)-5-(3-(pyrrolidin-1-ylsulfonyl)phenyl)-1H-pyrrolo[2,3-b]pyridine] |
| > 100 | < 100 | < 100 | CN(C(C)(C)C)S(=O)(=O)c1cccc(-c2cnc3[nH]cc(-c4cccc5c4OC(F)(F)O5)c3c2)c1 [Example 196, N-(tertbutyl)-3-(3-(2,2-difluorobenzo[d][1,3]dioxol-4-yl)-1H-pyrrolo[2,3-b]pyridin-5-yl)-N-methylbenzene-sulfonamide] |
| > 100 | < 100 | < 100 | FC1(F)Oc2cccc(-c3c[nH]c4ncc(-c5ccc(CN6CCCC6)s5)cc34)c2O1 [Example 197, 3-(2,2-difluorobenzo[d][1,3]dioxol-4-yl)-5-(5-(pyrrolidin-1-ylmethyl)thiophen-2-yl)-1H-pyrrolo[2,3-b]pyridine] |
| > 100 | < 100 | < 100 | FC1(F)Oc2cccc(-c3c[nH]c4ncc(-c5ccc(CN6CCCCC6)s5)cc34)c2O1 [Example 198, 3-(2,2-difluorobenzo[d][1,3]dioxol-4-yl)-5-(5-(piperidin-1-ylmethyl)thiophen-2-yl)-1H-pyrrolo[2,3-b]pyridine] |
| > 100 | < 100 | > 100 | FC1(F)Oc2cccc(-c3c[nH]c4ncc(-c5csc(N6CCOCC6)n5)cc34)c2O1 [Example 199, 4-(4-(3-(2,2-difluorobenzo[d][1,3]dioxol-4-yl)-1H-pyrrolo[2,3-b]pyridin-5-yl)thiazol-2-yl)morpholine] |
| > 100 | < 100 | < 100 | FC1(F)Oc2ccc(-c3c[nH]c4ncc(-c5ccc(CN6CCOCC6)s5)cc34)cc2O1 [Example 200] |
